Source: publication PMC8766756, “Insights on Cancer Cell Inhibition, Subcellular Activities, and Kinase Profile of Phenylacetamides Pending 1H-Imidazol-5-One Variants” (Frontiers in Pharmacology, 2022)
In brackets after ≈: the same amount, converted by molar mass. Entries after “also recorded” stand apart in the source; their conditions may differ. Like-named read-outs stand apart in the source and are kept apart here.

How the values were obtained:
AKT 1/2/3 = assay: Human Phospho-Kinase Array in HL60 cells; type: cell-based; details: 10 h (KIM-161 365 nM)
Text: (§1) We also measured changes in kinase activities of some selected Ser/Thr kinases using the Human Phospho-Kinase Array® kit (R&D Systems) which encompasses phosphoprotein-specific capture antibodies spotted at a certain location (in duplicates) on a nitrocellulose membrane. The signal intensities, detected by a sandwich immunoassay, are proportional to the amount of each phosphokinase in the cell lysate (Figure 8).
(§2) FIGURE 8 Phosphokinase proteome profile of KIM-161 in HL60 cell line. (A) Cells lysates were prepared after 10 h treatment with KIM-161 and applied to the membranes prespotted with the different antibodies. […] The height of each bar represents the average intensity of certain protein signals in treated cells/untreated × 100. Therefore, the dotted line represents the control percentage (100%).
(§3) The phosphorylation profile of 48 kinases was performed using the Proteome Profiler Human Phospho-Kinase Array an antibody array kit, by R&D Systems (Minneapolis, MN, USA). Total protein was extracted from the cell lysates treated with 365 nM KIM-161 for 10 h using the lysis buffer provided in the kit and quantified using the Bio-Rad DC Protein Assay kit (USA). The nitrocellulose membrane set (A&B), pre-spotted with the capture antibodies, was first blocked with 1 ml of Array buffer 1 at RT for 1 h in an 8-well multi-dish on a rocking platform shaker. Approximately 600 µg of protein concentrate (<334 µL) was diluted in the Array buffer 1 to a final volume of 2 ml. 1 ml of the protein sample was added onto the membrane set and incubated overnight at 4°C on a rocking platform shaker. Subsequently, membranes were washed with 15 ml of 1× wash buffer thrice for 5 min at RT, and the excess buffer was completely drained. The membranes A&B were then incubated with appropriate detection antibody cocktails A&B that were reconstituted using the 1× Array buffer 2/3 for 2 h at RT. After the incubation was complete, the membranes were washed with 15 ml of 1× wash buffer thrice for 5 min at RT, and the excess buffer was completely drained. Streptavidin-HRP (1:2000), diluted in 1× Array buffer 2/3, was applied onto the membranes and incubated for 30 min at RT on a rocking platform shaker. The membranes were washed thrice, and Chemi Reagent 1&2 were applied in equal volumes for detection on C-DiGit®Blot Scanner (LI-COR Odyssey Imaging Systems, Lincoln, Nebraska, USA) using the Image Studio 5.0 software.

C-Jun = assay: Human Phospho-Kinase Array in HL60 cells; type: cell-based
Text: as §1, §2, §3

Chk-2 = assay: Human Phospho-Kinase Array in HL60 cells; type: cell-based
Text: as §1, §2, §3

HSP27 (S78/S82) = assay: Human Phospho-Kinase Array in HL60 cells; type: cell-based
Text: as §1, §2, §3

HSP60 = assay: Human Phospho-Kinase Array in HL60 cells; type: cell-based
Text: as §1, §2, §3

JNK 1/2/3 = assay: Human Phospho-Kinase Array in HL60 cells; type: cell-based
Text: as §1, §2, §3

[1] = Maximum kinetic aqueous solubility; type: physicochemical; details: phosphate buffer, pH 7.4, aqueous buffer, kinetic from dmso stock
Procedure: Solubility assays were performed using the Millipore MultiScreen® HTS-PFC Filter Plates designed for the solubility assays (EMD Millipore, Billerica, MA). Assays were run in triplicate. The 96-well plates consist of two chambers separated by a filter. Liquid handling was performed using JANUS® Verispan and MTD workstations (Perkin Elmer, Waltham, MA). About 4 µL of the KIM-161 solution (10 mM in DMSO) was added to 196 µL of phosphate buffer (45 mM potassium phosphate, 45 mM sodium acetate, 45 mM ethanolamine, pH = 7.4) in the top chamber to give a final DMSO concentration of 2% and a theoretical drug concentration of 200 µM. The plates were gently shaken for 90 min and then subjected to vacuum. The insoluble drug was captured on the filter. 160 µL of the filtrate was transferred to 96-well Griener UV-Star® analysis plates (Sigma-Aldrich, St. Louis, MO) containing 40 µL of acetonitrile. The test compound concentration in the filtrate is measured by UV absorbance on a Spectromax® Plus microplate reader (Molecular Devices, Sunnyvale, CA) using SoftMax Pro Software v.5.4.5. The absorbances at five wavelengths (280, 300, 320, 340, and 360 nm) were summed to generate the UV signal. Standard curves were generated by adding 4 µL of five concentrations of the test compound in DMSO to 40 µL of acetonitrile in UV Star plates followed by 156 µL of the appropriate solubility medium. […]

[2] = Stability in mouse liver microsomes; type: in vitro ADME
Procedure: The clearance of KIM-161 in MLM or HLM was determined at 37°C as previously described ([Yang et al., 2007]). Both MLM and HLM were obtained from Merck KGaA (Darmstadt, Germany), Cat. No. M9441 (MLM) and M0317 (HLM). The assays were conducted in triplicate in 96-well deep polypropylene plates. […] At five time points, the reaction mixture aliquots were transferred to 96-shallow well stop plates on ice containing acetonitrile with 0.1 µM propafenone. […] The standard curves for the test compound were generated using five concentrations in triplicate that were processed as above but with zero incubation time. The stop plates were centrifuged at 2000g for 10 min, and then, the supernatant aliquots were transferred to a Waters Aquity® UPLC 700 µL 96-well sample plate with cap mat (Waters, Milford, MA). The amount of the compound remaining in the supernatant was quantified by LC/MS/MS using a Waters Xevo TQ MS (electrospray positive mode) coupled to a Waters Aquity® UPLC (BEH column, C18). Propafenone was used as the internal standard. GraphPad® Prism v.5.04 was used for nonlinear fitting of time course data to generate t1/2 values.

[3] = C-Jun spot, HL60 cells, 10 h (KIM-161 365 nM)
[4] = HL60, 365 nM, 10 h, vs untreated
[5] = Chk-2 spot, HL60 cells, 10 h (KIM-161 365 nM)
[6] = HSP27 spot, HL60 cells, 10 h (KIM-161 365 nM)
[7] = HSP60 spot, HL60 cells, 10 h (KIM-161 365 nM)
[8] = JNK 1/2/3 spot, HL60 cells, 10 h (KIM-161 365 nM)

COc1ccc(/C=C2\N=C(C)N(c3ccc(CC(=O)NCc4ccccc4)cc3)C2=O)cc1 [Compound 4c, (Z)-N-Benzyl-2-(4-(4-(4-methoxybenzylidene)-2-methyl-5-oxo-4,5-dihydro-1H-imidazol-1-yl)phenyl)acetamide]
Normalized to HK (AKT 1/2/3; AKT 1/2/3 spot): 0.00 | Normalized x10K (AKT 1/2/3; AKT 1/2/3 spot): 0.00 | Signal (AKT 1/2/3; AKT 1/2/3 spot): 0.00 | activity at 0.365 µM (AKT 1/2/3; Homo sapiens, HL-60, AKT 1/2/3 spot, untreated = 100, read-out: % Ctrl): 0% | Normalized to HK (C-Jun; [3]): 0.1136 | Normalized x10K (C-Jun; [3]): 1136.44 | Signal (C-Jun; [3]): 451.20 | enhancement of c-Jun (C-Jun; [4]): 15.8% | activity at 0.365 µM (C-Jun; Homo sapiens, HL-60, C-Jun spot, HL60 cells, 10 h (KIM-161 365 nM), untreated = 100, read-out: % Ctrl): 116% | Normalized to HK (Chk-2; [5]): 0.00913 | Normalized x10K (Chk-2; [5]): 91.25 | Signal (Chk-2; [5]): 32.06 | change of Chk-2 activity (Chk-2; [4]): upregulated | change of HSP27 phosphokinase signal (HSP27 (S78/S82); HL60, 365 nM, 10 h, vs untreated, listed as KIM-161): strongly suppresses; also recorded: strong downregulation | Normalized to HK (HSP27 (S78/S82); [6]): 0.00 | Normalized x10K (HSP27 (S78/S82); [6]): 0.00 | Signal (HSP27 (S78/S82); [6]): 0.00 | activity at 0.365 µM (HSP27 (S78/S82); Homo sapiens, HL-60, HSP27 spot, HL60 cells, 10 h (KIM-161 365 nM), untreated = 100, read-out: % Ctrl): 0% | reduction of HSP60 activity (HSP60; [4]): 28.5% | Normalized to HK (HSP60; [7]): 0.0227 | Normalized x10K (HSP60; [7]): 227.18 | Signal (HSP60; [7]): 90.20 | activity at 0.365 µM (HSP60; Homo sapiens, HL-60, HSP60 spot, HL60 cells, 10 h (KIM-161 365 nM), untreated = 100, read-out: % Ctrl): 71.5% | reduction of JNK1/2/3 activity (JNK 1/2/3; [4]): 26.0% | activity at 0.365 µM (JNK 1/2/3; Homo sapiens, HL-60, JNK 1/2/3 spot, HL60 cells, 10 h (KIM-161 365 nM), untreated = 100, read-out: % Ctrl): 74% | Normalized to HK (JNK 1/2/3; [8]): 0.0031 | Normalized x10K (JNK 1/2/3; [8]): 31.34 | Signal (JNK 1/2/3; [8]): 11.01 | solubility at 90 min ([1]; Max solubility in 2% DMSO/PBS, kinetic, pH 7.4): 19.9 µM (≈ 8.75 µg/mL) | solubility at 90 min ([1]; read-out: solubility): ~20 µM (≈ 8.79 µg/mL) | MLM stability ([2]; mouse liver microsomes, 37°C, t1/2): 14.8 min | % Remaining in MLM with NADPH ([2]; with NADPH, >60 min, listed as KIM-161): unchanged | % Remaining in MLM without NADPH ([2]; without NADPH, >60 min, listed as KIM-161): Unchanged >60 min
